Data reported in paper PMC4990177, “ABCB1 Overexpression Is a Key Initiator of Resistance to Tyrosine Kinase Inhibitors in CML Cell Lines” (PLoS ONE, 2016).

Columns and labels:
K562-Dox cells [1] = assay: Cell viability assay, Annexin V/7-AAD, 72 h, K562-Dox cells
Protocol: (§1) Cells were washed and resuspended in fresh culture media before culture in 24-well plates (Thermo Fisher Scientific, Waltham, MA, USA) in the presence of TKI at a density of 2×10^5 cells/mL. Plates were seeded with 1 mL of cell suspension in triplicate, placed in sterilised containers and incubated for 72 h before cell viability determination with 7-aminoactinomycin D (7-AAD; Invitrogen Life Technologies, Carlsbad, CA, USA) and Phycoerythrin (PE)-conjugated Annexin V antibody (BD Biosciences, Franklin Lakes, NJ, USA). Flow cytometric analysis was conducted with an FC500 flow cytometer (Beckman Coulter, Miami, FL, USA) and FCS Express 4 software (De Novo Software, Los Angeles, CA, USA).
Error bars represent SEM.

K562 cells [2] = assay: Cell viability assay, Annexin V/7-AAD, 72 h, K562 cells
Protocol: as §1
Error bars represent SEM.

K562 cells [3] = assay: % live cells during nilotinib dose escalation, K562 resistance intermediates; format: cell-based
LYN mRNA = LYN mRNA expression by RQ-PCR in nilotinib resistant K562 cells; format: cell-based; settings: K562 #6 NIL cells and later intermediates, duration of nilotinib escalation
K562-Dox cells [4] = assay: % live cells during nilotinib dose escalation, K562-Dox resistance intermediates; format: cell-based

Cc1nc(Nc2ncc(C(=O)Nc3c(C)cccc3Cl)s2)cc(N2CCN(CCO)CC2)n1 [dasatinib]
survival (% live cells) (K562-Dox cells [1]; K562-Dox #5 NIL cells, 100 nM dasatinib): 60%
survival (% live cells) (K562-Dox cells [1]; K562-Dox control cells, 100 nM dasatinib): 5%
survival (% live cells) (K562 cells [2]; K562 #6 NIL cells, 500 nM dasatinib): 74%
survival (% live cells) (K562 cells [2]; K562 #10 NIL cells, 500 nM dasatinib): 74%
survival (% live cells) (K562 cells [2]; K562 control cells, 500 nM dasatinib): 21%

Cc1cn(-c2cc(NC(=O)c3ccc(C)c(Nc4nccc(-c5cccnc5)n4)c3)cc(C(F)(F)F)c2)cn1 [nilotinib]
survival (% live cells) (K562-Dox cells [1]; K562-Dox #5 NIL cells, 1000 nM nilotinib): 74%
survival (% live cells) (K562-Dox cells [1]; K562-Dox control cells, 1000 nM nilotinib): 8%
% Live Cells (K562 cells [3]; K562 intermediate #1, cultured in 15 nM NIL, 10 days in culture): 95.0%
% Live Cells (K562 cells [3]; K562 intermediate #2, cultured in 25 nM NIL, 11 days in culture): 99.1%
% Live Cells (K562 cells [3]; K562 intermediate #3, cultured in 50 nM NIL, 10 days in culture): 96.7%
% Live Cells (K562 cells [3]; K562 intermediate #4, cultured in 75 nM NIL, 14 days in culture): 93.7%
% Live Cells (K562 cells [3]; K562 intermediate #5, cultured in 100 nM NIL, 12 days in culture): 94.6%
% Live Cells (K562 cells [3]; K562 intermediate #6, cultured in 125 nM NIL, 28 days in culture (prolonged exposure)): ~ 80%
% Live Cells (K562 cells [3]; K562 intermediate #6, cultured in 125 nM NIL, 28 days in culture (prolonged exposure), listed as NIL): 83.6%
% Live Cells (K562 cells [3]; K562 intermediate #7, cultured in 140 nM NIL, 17 days in culture): 87.4%
% Live Cells (K562 cells [3]; K562 intermediate #8, cultured in 300 nM NIL, 12 days in culture): 93.3%
% Live Cells (K562 cells [3]; K562 intermediate #9, cultured in 400 nM NIL, 14 days in culture): 90.8%
% Live Cells (K562 cells [3]; K562 intermediate #10, cultured in 2 μM NIL, continuous culture): 94.1%
LYN mRNA increase compared with control cells (LYN mRNA): 15–18 fold
% Live Cells (K562-Dox cells [4]; K562-Dox intermediate #1, cultured in 15 nM NIL, 11 days in culture): 99.6%
% Live Cells (K562-Dox cells [4]; K562-Dox intermediate #2, cultured in 30 nM NIL, 10 days in culture): 96.9%
% Live Cells (K562-Dox cells [4]; K562-Dox intermediate #3, cultured in 60 nM NIL, 11 days in culture): 98.5%
% Live Cells (K562-Dox cells [4]; K562-Dox intermediate #4, cultured in 100nM NIL, 12 days in culture): 91.3%
% Live Cells (K562-Dox cells [4]; K562-Dox intermediate #5, cultured in 125 nM NIL, 81 days in culture): 73.6%
% Live Cells (K562-Dox cells [4]; K562-Dox intermediate #6, cultured in 200 nM NIL, 16 days in culture): 76.6%
% Live Cells (K562-Dox cells [4]; K562-Dox intermediate #7, cultured in 1 μM NIL, 19 days in culture): 75.8%
% Live Cells (K562-Dox cells [4]; K562-Dox intermediate #8, cultured in 2 μM NIL, continuous culture): 90.7%
survival (% live cells) (K562 cells [2]; K562 #6 NIL cells, 1000 nM nilotinib): 87%
survival (% live cells) (K562 cells [2]; K562 #10 NIL cells, 1000 nM nilotinib): 85%
survival (% live cells) (K562 cells [2]; K562 control cells, 1000 nM nilotinib): 19%

Cc1ccc(NC(=O)c2ccc(CN3CCN(C)CC3)cc2)cc1Nc1nccc(-c2cccnc2)n1 [imatinib]
survival (% live cells) (K562-Dox cells [1]; K562-Dox #5 NIL cells, 5 μM imatinib): 79%
survival (% live cells) (K562-Dox cells [1]; K562-Dox control cells, 5 μM imatinib): 31%
survival (% live cells) (K562 cells [2]; K562 #6 NIL cells, 5 μM imatinib): 92%
survival (% live cells) (K562 cells [2]; K562 #10 NIL cells, 5 μM imatinib): 89%
survival (% live cells) (K562 cells [2]; K562 control cells, 5 μM imatinib): 29%
